Measured values taken from patent US20150232876A1, “Use of a Receptor Kinase Having LysM Motifs in Order to Improve the Response of Plants to Lipochitooligosaccharides” (INSTITUT NATIONAL DE LA RECHERCHE AGRONOMIQUE, priority 2012, published 2015).

Columns and labels:
PpLYR3 = PpLYR3 (Prunus persica, UniProt A0A251NBL6); assay: Equilibrium, saturation and competition binding on PpLYR3 expressed in N. benthamiana leaves
Procedure: (§1) In non-legumes, PpLYR3, SILYR3 and AtLysM-RLK4 genes have been cloned, the corresponding proteins were expressed in N. benthamiana leaves, and their ability to bind to LCOs was determined by binding experiments at equilibrium, as described above for legumes LYR3 proteins.
The interaction of PpLYR3 with the Nod LCO-IV (^35S, C16:2Δ2, 9) factor has been characterized in more detail by means of saturation and competition experiments. The results obtained are illustrated in FIG. 9. […] Similarly, PpLYR3 specifically recognizes the LCOs as interaction with COs (CO-IV and CO-VIII) is of low affinity (Ki>5 μM).

[1] = tested on: 100 kDa polypeptide (MtNFBS2); assay: Photolabeling of the 100 kDa polypeptide in membrane fractions, with excess competitors; format: binding, Medicago truncatula; conditions: 2 μM competitor, 5 nM azido ligand, dmi3 membrane fraction
Text: To assess the molecular mass of the affine protein of Nod factors responsible for binding properties of MtNFBS2, a photolabeling with Nod factors analogs containing a photoactivatable group, which after irradiation in a given wavelength reactive species which can form a covalent bond with the surrounding molecules, has been taken. […] homologues of these molecules have been synthesized and labeled with ^35S to enable detection of the stable complex ligand/binding protein.
For photolabeling, 5 nM of radioactive and photoactivatable ligand, alone or in the presence of an excess (2 μM) different competitors were incubated in binding buffer, in the same conditions as described in Example 1 above for the binding experiments at equilibrium, with 300 micrograms of membrane protein fraction obtained from cultured cells of wild-type Medicago truncatula (A 17), or the dmi3 mutant of Medicago truncatula. After 1 hour of incubation, the samples were irradiated for 5 min at 254 nm or 10 min at 365 nm with a fluorescent tube at a distance of 4 cm. The free ligand was removed by centrifugation, and the membrane pellet was washed two times in binding buffer.
The membrane pellet proteins were separated by polyacrylamide gel electrophoresis in 10% SDS, and transferred onto nitrocellulose membrane, and detection was carried out by autoradiography.

LYR3 = LYR3 (Medicago truncatula, UniProt G7KAT5); assay: Saturation and competitive binding on LYR3-YFP expressed in N. benthamiana leaf membrane fractions; conditions: LYR3-YFP in N. benthamiana leaf membranes; competition with 0.9 nM LCO-IV(35S, C16:2Δ2,9); read-out: Affinity (nM) for LYR3 (Ki)
Sequence of LYR3 (G7KAT5 entry or part of it): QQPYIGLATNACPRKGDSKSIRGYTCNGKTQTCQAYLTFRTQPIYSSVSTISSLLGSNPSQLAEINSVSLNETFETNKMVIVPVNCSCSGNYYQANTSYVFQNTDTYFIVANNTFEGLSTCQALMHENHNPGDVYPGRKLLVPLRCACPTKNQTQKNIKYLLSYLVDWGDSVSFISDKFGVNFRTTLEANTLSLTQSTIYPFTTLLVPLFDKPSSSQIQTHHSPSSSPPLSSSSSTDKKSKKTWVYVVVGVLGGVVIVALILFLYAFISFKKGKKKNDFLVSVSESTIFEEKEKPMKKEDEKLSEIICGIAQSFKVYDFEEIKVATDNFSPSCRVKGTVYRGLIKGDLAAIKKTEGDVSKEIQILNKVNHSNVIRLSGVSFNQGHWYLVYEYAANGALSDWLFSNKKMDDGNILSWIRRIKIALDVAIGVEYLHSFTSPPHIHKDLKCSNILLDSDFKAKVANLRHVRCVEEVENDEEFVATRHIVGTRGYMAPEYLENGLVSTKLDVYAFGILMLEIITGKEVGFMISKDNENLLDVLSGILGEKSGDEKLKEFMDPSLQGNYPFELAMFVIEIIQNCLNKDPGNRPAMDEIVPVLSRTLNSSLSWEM
Text: Genes LYR3, LYK9 and LYR6 were inserted into a binary vector, fused in C-terminal with a fluorescent protein (Yellow Fluorescent Protein: YFP) and introduced into Nicotiana benthamiana leaves using agroinfiltration by Agrobacterium tumefaciens. Meanwhile, NFP and LYK3 genes which encode putative receptors […] Nod factors were inserted into the same vectors and expressed in the same conditions.
3 days after agro-infiltration, leaves of N. benthamiana expressing the different constructs were harvested and ground in liquid nitrogen. Membrane fractions were prepared from the ground material, using the same protocol as that described above for the preparation of microsomal fractions, except that 0.6% (w/v) of polyvinyl-polypyrrolidone were added to extraction buffer. After centrifugation at 3000×g, the supernatant was collected and centrifuged at 45000×g. The resulting (membrane fraction) pellet was resuspended in binding buffer, and stored at −80° C. in the presence of 10% or 50% glycerol, until use.
Membrane proteins were separated by 10% polyacrylamide gel electrophoresis in SDS, and transferred onto nitrocellulose membrane, and detection of recombinant proteins made using anti-GFP antibody. Meanwhile, the properties of specific binding to LCOs were assessed by equilibrium binding, as described in Example 1, using 0.8 to 2.4 nM of LCO-IV (^35S, C16:2Δ2, 9) +/−2 μM of unlabeled LCO-IV (S, C16: 2Δ2, 9), and 25 micrograms to 80 micrograms of membrane protein, depending of the expression level of the protein labeled with YFP.
To further characterize the binding properties of the protein LYR3, saturation binding experiments using LCO-IV (^35S, C16:2Δ2, 9) and competitive binding experiments in the presence of different COs or LCOs were performed.

AtLysM-RLK4 = biological target: T1, AtLysM-RLK4 (Arabidopsis thaliana, UniProt O64825); assay: Equilibrium binding on AtLysM-RLK4 expressed in N. benthamiana leaves
T1 construct: YFP (implied by anti-GFP immunopurification); expressed in transfected cells; host or cells: Nicotiana benthamiana leaves, membrane fraction
T1 sequence (O64825 23-612): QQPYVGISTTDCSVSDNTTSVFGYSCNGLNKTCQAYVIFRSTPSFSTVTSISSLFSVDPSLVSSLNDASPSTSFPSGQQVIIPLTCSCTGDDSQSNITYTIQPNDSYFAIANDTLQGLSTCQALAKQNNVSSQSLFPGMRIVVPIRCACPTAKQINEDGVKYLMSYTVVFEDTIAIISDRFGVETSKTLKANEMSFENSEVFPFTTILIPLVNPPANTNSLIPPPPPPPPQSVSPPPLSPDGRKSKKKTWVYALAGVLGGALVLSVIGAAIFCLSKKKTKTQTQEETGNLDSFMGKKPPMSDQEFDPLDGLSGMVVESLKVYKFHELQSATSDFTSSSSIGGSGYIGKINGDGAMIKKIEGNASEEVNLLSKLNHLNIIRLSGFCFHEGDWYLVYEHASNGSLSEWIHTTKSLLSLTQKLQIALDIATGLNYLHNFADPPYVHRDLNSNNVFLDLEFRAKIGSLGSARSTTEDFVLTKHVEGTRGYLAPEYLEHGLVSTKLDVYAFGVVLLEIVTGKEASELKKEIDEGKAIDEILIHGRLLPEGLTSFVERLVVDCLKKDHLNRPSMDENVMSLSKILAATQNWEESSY
Procedure: as §1

LjNFR5 = assay: Equilibrium binding on receptor expressed in N. benthamiana leaves; parameters: species or system Lotus japonicus; conditions: LjNFR5, 1 nM radioligand
Text: (§2) In legumes, MtLYR3 orthologs have been identified in P. sativum, P. vulgaris and L. japonicus. In G. max orthologs exist in duplicate due to a duplication of the genome. The corresponding genes have been cloned and sequenced. A few differences in sequence compared with sequences in the databases were found which could be explained by the use of different varieties of plants or by sequencing errors in databases. The cloned genes were introduced into binary vectors, in C-terminal fusion with the fluorescent protein YFP, and introduced into Nicotiana benthamiana leaves using agroinfiltration by Agrobacterium tumefaciens, as described above in Example 3. The membrane fractions were isolated, their protein content was analyzed by electrophoresis under denaturing conditions, followed by immunodetection using anti-GFP antibody as described in Example 3, and their ability to interact with LCOs was determined by equilibrium binding, as described in Example 1, in the presence of 1 nM LCO-IV (S^35, C16:2Δ2, 9). The value of specific binding is determined by the value of difference between the total binding and the nonspecific binding obtained for incubation in the presence of an excess (2 μM) of unlabeled ligand. […]

LjNFR1 = assay: as above; parameters: species or system Lotus japonicus; conditions: LjNFR1, 1 nM radioligand
Text: as §2

PsLYR3 = PsLYR3 (Lathyrus oleraceus, UniProt A0A9D5BD18); assay: Equilibrium, saturation and competitive binding on MtLYR3 ortholog expressed in N. benthamiana leaves; parameters: species or system Pisum sativum
Sequence of PsLYR3 (A0A9D5BD18 entry or part of it): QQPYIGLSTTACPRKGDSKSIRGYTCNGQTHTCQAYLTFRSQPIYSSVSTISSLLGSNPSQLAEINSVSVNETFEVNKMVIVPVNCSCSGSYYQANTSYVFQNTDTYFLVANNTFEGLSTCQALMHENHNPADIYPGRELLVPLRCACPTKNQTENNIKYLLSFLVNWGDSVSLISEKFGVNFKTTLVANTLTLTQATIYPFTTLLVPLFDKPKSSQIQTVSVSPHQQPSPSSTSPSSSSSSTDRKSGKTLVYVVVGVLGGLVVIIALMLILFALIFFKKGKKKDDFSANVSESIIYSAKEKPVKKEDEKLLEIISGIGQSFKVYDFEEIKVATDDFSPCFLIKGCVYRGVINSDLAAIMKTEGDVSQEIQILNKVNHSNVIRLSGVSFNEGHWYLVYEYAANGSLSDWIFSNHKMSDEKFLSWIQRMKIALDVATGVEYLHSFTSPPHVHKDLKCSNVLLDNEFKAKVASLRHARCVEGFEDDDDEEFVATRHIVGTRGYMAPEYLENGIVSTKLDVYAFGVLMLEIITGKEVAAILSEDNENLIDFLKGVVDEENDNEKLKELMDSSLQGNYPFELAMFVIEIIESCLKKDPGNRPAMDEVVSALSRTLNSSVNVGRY
Text: (§3) In legumes, MtLYR3 orthologs have been identified in P. sativum, P. vulgaris and L. japonicus. In G. max orthologs exist in duplicate due to a duplication of the genome. The corresponding genes have been cloned and sequenced. A few differences in sequence compared with sequences in the databases were found which could be explained by the use of different varieties of plants or by sequencing errors in databases. The cloned genes were introduced into binary vectors, in C-terminal fusion with the fluorescent protein YFP, and introduced into Nicotiana benthamiana leaves using agroinfiltration by Agrobacterium tumefaciens, as described above in Example 3. The membrane fractions were isolated, their protein content was analyzed by electrophoresis under denaturing conditions, followed by immunodetection using anti-GFP antibody as described in Example 3, and their ability to interact with LCOs was determined by equilibrium binding, as described in Example 1, in the presence of 1 nM LCO-IV (S^35, C16:2Δ2, 9). The value of specific binding is determined by the value of difference between the total binding and the nonspecific binding obtained for incubation in the presence of an excess (2 μM) of unlabeled ligand. For comparison, the ability to interact of LjNFR5 and LjNFR1 receptors, identified in L. japonicus to play a role in nodulation by a genetic approach (MADSEN et al, Nature, 425, 637-40, 2003. RADUTOIU et al., Nature, 425, 585-92, 2003a) and respective orthologs of LYK3 and NFP in M. truncatula was determined under the same conditions.
(§4) To further characterize the binding properties of MtLYR3 orthologs to LCOs, saturation and competitive binding experiments in the presence of different COs or LCOs were performed.

SILYR3 = assay: Equilibrium binding on SILYR3 expressed in N. benthamiana leaves; parameters: species or system Solanum lycopersicum
Procedure: as §1

LjLYS12 = LjLYS12 (Lotus japonicus, UniProt D3KTZ9); assay: Equilibrium, saturation and competitive binding on MtLYR3 ortholog expressed in N. benthamiana leaves
Sequence of LjLYS12 (D3KTZ9 entry or part of it): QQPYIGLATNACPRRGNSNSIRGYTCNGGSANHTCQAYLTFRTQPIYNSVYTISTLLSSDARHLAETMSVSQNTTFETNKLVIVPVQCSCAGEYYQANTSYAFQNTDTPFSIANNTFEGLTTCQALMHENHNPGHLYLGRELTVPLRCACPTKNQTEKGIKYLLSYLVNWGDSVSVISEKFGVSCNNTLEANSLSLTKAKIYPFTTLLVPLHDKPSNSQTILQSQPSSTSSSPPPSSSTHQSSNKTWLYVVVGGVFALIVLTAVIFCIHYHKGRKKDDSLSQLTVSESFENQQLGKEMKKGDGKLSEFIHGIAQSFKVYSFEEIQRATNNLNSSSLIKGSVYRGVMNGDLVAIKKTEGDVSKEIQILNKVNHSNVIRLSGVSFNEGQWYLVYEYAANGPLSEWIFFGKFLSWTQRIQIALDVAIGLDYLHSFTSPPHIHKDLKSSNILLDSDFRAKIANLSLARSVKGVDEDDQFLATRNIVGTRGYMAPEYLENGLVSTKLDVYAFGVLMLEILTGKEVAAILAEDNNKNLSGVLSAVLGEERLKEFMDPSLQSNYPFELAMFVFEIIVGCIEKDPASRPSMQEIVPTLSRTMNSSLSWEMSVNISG
Text: as §3, §4

GmLYR3-1 = GmLYR3-1 (Glycine max, UniProt A5YJW2); assay: as above
Sequence of GmLYR3-1 (A5YJW2 entry or part of it): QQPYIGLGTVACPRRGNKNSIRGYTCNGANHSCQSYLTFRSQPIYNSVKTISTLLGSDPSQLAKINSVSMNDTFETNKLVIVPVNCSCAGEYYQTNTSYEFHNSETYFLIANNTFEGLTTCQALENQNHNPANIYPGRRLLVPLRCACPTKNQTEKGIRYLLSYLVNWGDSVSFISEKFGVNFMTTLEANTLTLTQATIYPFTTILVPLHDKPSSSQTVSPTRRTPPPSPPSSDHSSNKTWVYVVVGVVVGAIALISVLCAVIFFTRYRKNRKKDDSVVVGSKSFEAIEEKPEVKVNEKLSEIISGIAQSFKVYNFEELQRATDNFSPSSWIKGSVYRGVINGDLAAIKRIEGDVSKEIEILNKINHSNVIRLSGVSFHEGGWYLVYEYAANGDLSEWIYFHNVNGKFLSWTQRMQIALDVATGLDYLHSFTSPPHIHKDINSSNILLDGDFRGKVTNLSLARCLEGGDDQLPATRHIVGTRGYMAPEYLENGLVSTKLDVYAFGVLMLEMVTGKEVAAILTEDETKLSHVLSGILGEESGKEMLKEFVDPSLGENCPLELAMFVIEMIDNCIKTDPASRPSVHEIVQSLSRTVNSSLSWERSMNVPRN
Text: as §3, §4

GmLYR3-11 = GmLYR3-11 (Glycine max, UniProt I1LHL9); assay: as above
Sequence of GmLYR3-11 (I1LHL9 entry or part of it): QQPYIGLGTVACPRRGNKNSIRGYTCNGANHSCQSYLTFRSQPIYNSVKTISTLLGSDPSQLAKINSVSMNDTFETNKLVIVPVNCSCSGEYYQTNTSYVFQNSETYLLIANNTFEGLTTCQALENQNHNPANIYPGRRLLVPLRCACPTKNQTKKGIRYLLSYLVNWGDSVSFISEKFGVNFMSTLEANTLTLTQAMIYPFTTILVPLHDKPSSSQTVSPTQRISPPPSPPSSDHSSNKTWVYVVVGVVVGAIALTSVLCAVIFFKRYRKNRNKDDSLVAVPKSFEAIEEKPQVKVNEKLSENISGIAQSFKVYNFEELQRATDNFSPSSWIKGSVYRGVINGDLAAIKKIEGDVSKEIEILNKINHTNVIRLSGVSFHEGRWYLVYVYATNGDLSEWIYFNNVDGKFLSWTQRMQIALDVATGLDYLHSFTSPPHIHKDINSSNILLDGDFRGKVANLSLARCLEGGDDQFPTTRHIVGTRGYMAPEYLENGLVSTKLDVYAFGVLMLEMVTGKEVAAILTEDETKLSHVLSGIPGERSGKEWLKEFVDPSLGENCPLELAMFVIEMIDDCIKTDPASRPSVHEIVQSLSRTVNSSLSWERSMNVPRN
Text: as §3, §4

PvLYR3 = PvLYR3 (Phaseolus vulgaris, UniProt V7CFC1); assay: as above
Sequence of PvLYR3 (V7CFC1 entry or part of it): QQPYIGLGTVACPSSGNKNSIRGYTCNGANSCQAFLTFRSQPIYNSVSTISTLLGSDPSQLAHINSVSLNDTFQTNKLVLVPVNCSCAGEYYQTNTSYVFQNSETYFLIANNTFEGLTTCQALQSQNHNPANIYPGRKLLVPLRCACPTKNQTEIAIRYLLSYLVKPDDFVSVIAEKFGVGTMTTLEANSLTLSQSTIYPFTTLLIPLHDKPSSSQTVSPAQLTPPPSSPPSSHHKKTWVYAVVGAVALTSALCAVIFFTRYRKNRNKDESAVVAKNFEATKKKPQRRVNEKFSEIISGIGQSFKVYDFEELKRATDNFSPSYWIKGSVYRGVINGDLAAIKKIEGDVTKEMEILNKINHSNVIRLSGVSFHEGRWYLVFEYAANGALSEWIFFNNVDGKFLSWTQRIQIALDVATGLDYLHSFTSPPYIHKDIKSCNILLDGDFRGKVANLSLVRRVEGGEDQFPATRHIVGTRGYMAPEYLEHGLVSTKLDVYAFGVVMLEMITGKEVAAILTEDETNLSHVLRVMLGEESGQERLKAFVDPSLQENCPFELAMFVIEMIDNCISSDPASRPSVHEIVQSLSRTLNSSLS
Text: as §3, §4

Sequence of PpLYR3 (A0A251NBL6 entry or part of it): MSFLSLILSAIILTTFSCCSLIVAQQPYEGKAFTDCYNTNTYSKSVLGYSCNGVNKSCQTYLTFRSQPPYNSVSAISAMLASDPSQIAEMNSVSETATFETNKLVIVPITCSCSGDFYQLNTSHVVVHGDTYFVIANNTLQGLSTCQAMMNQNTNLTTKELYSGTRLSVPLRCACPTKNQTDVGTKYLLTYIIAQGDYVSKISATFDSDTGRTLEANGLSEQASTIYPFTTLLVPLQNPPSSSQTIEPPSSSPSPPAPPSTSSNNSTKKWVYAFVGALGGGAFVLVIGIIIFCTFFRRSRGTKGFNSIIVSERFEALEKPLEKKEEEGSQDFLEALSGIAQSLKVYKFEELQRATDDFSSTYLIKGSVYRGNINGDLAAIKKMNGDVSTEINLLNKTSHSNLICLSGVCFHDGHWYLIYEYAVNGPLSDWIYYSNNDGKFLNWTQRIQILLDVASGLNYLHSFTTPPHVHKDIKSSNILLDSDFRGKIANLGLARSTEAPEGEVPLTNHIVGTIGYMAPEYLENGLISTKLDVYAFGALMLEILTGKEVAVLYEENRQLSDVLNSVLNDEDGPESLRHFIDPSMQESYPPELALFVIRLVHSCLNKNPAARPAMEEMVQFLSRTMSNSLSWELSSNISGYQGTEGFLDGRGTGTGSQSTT

SMILES | Ki (PpLYR3; PpLYR3, competition) | binding of the radiolabeled photoactivatable ligand to the 100 kDa polypeptide in presence of excess competitor [1] | Ki (LYR3) | binding activity of membrane fractions (interaction with radioligand) (AtLysM-RLK4) | binding activity of membrane fractions (interaction with radioligand) (LjNFR5) | binding activity of membrane fractions (interaction with radioligand) (LjNFR1) | binding activity of membrane fractions (interaction with radioligand) (PpLYR3; PpLYR3) | Kd (PpLYR3; PpLYR3, saturation) | binding activity of membrane fractions (interaction with radioligand) (PsLYR3; PsLYR3, 1 nM radioligand) | binding activity of membrane fractions (interaction with radioligand) (SILYR3) | binding activity of membrane fractions (interaction with radioligand) (LjLYS12; LjLYS12, 1 nM radioligand) | binding activity of membrane fractions (interaction with radioligand) (GmLYR3-1; GmLYR3-1, 1 nM radioligand) | binding activity of membrane fractions (interaction with radioligand) (GmLYR3-11; GmLYR3-11, 1 nM radioligand) | binding activity of membrane fractions (interaction with radioligand) (PvLYR3; PvLYR3, 1 nM radioligand) | Ki (PsLYR3; PsLYR3, read-out: Affinity (Ki)) | Ki (LjLYS12; LjLYS12, read-out: Affinity (Ki)) | Ki (GmLYR3-1; GmLYR3-1, read-out: Affinity (Ki)) | Ki (GmLYR3-11; GmLYR3-11, read-out: Affinity (Ki)) | Ki (PvLYR3; PvLYR3, read-out: Affinity (Ki))
CC(=O)N[C@H]1[C@H](O[C@H]2[C@H](O)[C@@H](NC(C)=O)C(O)O[C@@H]2CO)O[C@H](CO)[C@@H](O[C@@H]2O[C@H](CO)[C@@H](O[C@@H]3O[C@H](CO)[C@@H](O)[C@H](O)[C@H]3NC(C)=O)[C@H](O)[C@H]2NC(C)=O)[C@@H]1O (stereo partly drawn) [CO-IV, chitotetraose] | > 5000 nM | not | > 5000 nM | – | – | – | – | – | – | – | – | – | – | – | – | – | – | – | –
CCCCCC/C=C\CCCCC/C=C/C(=O)N[C@H]1[C@H](O[C@H]2[C@H](O)[C@@H](NC(C)=O)[C@H](O[C@H]3[C@H](O)[C@@H](NC(C)=O)[C@H](O[C@H]4[C@H](O)[C@@H](NC(C)=O)C(O)O[C@@H]4COS(=O)(=O)O)O[C@@H]3CO)O[C@@H]2CO)O[C@H](CO)[C@@H](O)[C@@H]1O (stereo partly drawn) [LCO-IV (^35S, C16:2Δ2, 9)] | – | – | – | no interaction | no interaction | no interaction | interacts | 15 nM | interact | very low | interact | interact | interact | interact | – | – | – | – | –
CCCCCCCC/C=C\CCCCCCCC(=O)N[C@H]1[C@H](O[C@H]2[C@H](O)[C@@H](NC(C)=O)[C@H](O[C@H]3[C@H](O)[C@@H](NC(C)=O)[C@H](O[C@H]4[C@H](O)[C@@H](NC(C)=O)C(O)O[C@@H]4COS(=O)(=O)O)O[C@@H]3CO)O[C@@H]2CO)O[C@H](CO)[C@@H](O)[C@@H]1O (stereo partly drawn) [LCO-IV(S, C18:1Δ9)] | – | inhibited | 13.5 nM | – | – | – | – | – | – | – | – | – | – | – | 16 nM | 7 nM | 12 nM | 19 nM | 13 nM
